From patent US4927855A, “Levorotatory isomer of benzhydrylsulfinyl derivatives” (priority 1986, dated 1990)

Legend:
[1] = Activity and lethality of the metabolite CRL 40 467 in male mice; format: in vivo
[2] = Behavior in rats; format: in vivo, male rats; settings: intraperitoneal; for mydriatic action in male rats: all the doses used; for behavior, reactivities and variations in the rectal temperature and pupil diameter: male rats, 64, 16, 4 and 1 mg/kg
Experimental: (§1) The comparative tests which were undertaken with the levorotatory derivative according to the invention (Ex. 1; Code no.: CRL 40 982), the dextrorotatory derivative (CP1; Code no.: CRL 40 983) and the corresponding racemate (CP2; Code no.: CRL 40 476) have been summarized below. Unless indicated otherwise, the 3 products studied in these tests were administered intraperitoneally as a suspension in an aqueous solution of gum arabic, in a volume of 20 ml/kg to male mice and in a volume of 5 ml/kg to male rats.
at a dose of 128 mg/kg, CRL 40 476 causes excitation with an increase in the fear ration for 2 h, exophthalmos for 1 h and mydriasis for 1 for 2 h;
at a dose of 32 mg/kg, CRL 40 476 causes excitation (transient, lasting 0.5 h) with an increase in the fear reaction for 1 h, exophthalmos for 0.5-1 h and mydriasis for 1-2 h;
at a dose of 8 mg/kg, CRL 40 476 causes exophthalmos for 0.5-1 h and mydriasis for 0.5 h;
at a dose of 2 mg/kg, CRL 40 476 induces transient mydriasis appearing 1 h after administration, whereas

[3] = Pharmacokinetic study on dogs (plasma AUC, metabolism to CRL 40 467); format: in vivo; settings: for AUCo^+9h of CRL 40 476, comparison between products administered: dogs, oral, 30 mg/kg, plasma, 0-9 h, stereoisomers not distinguished; for conversion to inactive metabolite CRL 40 467: in the organism
From the text: to distinguish CRL 40 982 from the racemic and dextrorotatory compounds, a kinetic study of the metabolism was undertaken on dogs (group of four animals). In a randomized crossover procedure, each animal received the following at the rate of one oral administration per week: 2 administrations of CRL 40 476 (for assessment of the variations within individuals), 1 administration of CRL 40 982 and 1 administration of CRL 40 983. Following each of these administrations, the kinetics of the CRL 40 476 and CRL 40 467 present in the plasma were determined (without looking to see whether these two products were in the racemic, levorotatory and/or dextrorotatory form, because of the difficulties associated with determining the optical rotation of each of the optical isomers in a biological medium).
The dose administered for each of the test substances CRL 40 476, CRL 40 982 and CRL 40 983 was 30 mg/kg.
After administration of CRL 40 476, the said CRL 40 476 and its metabolite, CRL 40 467, are found in the plasma.
After the administration of CRL 40 982, the following are found in the plasma: the said CRL 40 982, which will be characterized and determined as being CRL 40 476 by way of convenience, in view of what has been said above, and a metabolite which will be characterized and determined as being CRL 40 467.
Likewise, after administration of CRL 40 983, the 2 corresponding products in the plasma will be characterized and determined as being CRL 40 476 and CRL 40 467.
The curves of the plasma concentrations of the said CRL 40 476 and CRL 40 467 as a function of time are plotted from time […] to time T=+9 h after administration of the CRL 40 476, CRL 40 982 and CRL 40 983. The areas under the curves (AUCo^+9h) are then calculated.

[4] = Motor activity in mice (actimeter); format: in vivo, male mice; settings: for motor activity: 128 mg/kg and to a lesser extent 64 mg/kg, intraperitoneal four hours before 30 min recording; for intensity of stimulant effect / hyperactivity relative to the other products / level and statistical significance of hyperactivity relative to CRL 40 476: intraperitoneal four hours before the test; for level and statistical significance of hyperactivity relative to CRL 40 476: especially at 128 mg/kg
Experimental: as §1
The mice (6 per dose, 18 control animals) receive CRL 40 476, CRL 40 982 or CRL 40 983 four hours before being placed in an actimeter, where their motility is recorded for 30 minutes.

[5] = Toxicity in male mice, intraperitoneal administration; format: in vivo
Experimental: as §1

[6] = Behavior in male mice (stimulant effects); format: in vivo; settings: intraperitoneal
Experimental: as §1

[7] = Human clinical trials; format: in vivo
[8] = Solubility of CRL 40 982; settings: alcohols, acetone, water, ether
[9] = Immunostimulant effect in vitro
[10] = male mice, intraperitoneal, 1024, 512, 256, 128 and 64 mg/kg
[11] = human, once or twice a day, tablets or gelatin capsules of 50 to 100 mg

O=C(O)C[S+]([O-])C(c1ccccc1)c1ccccc1 (racemic) [CRL 40 467, (±)-benzhydrylsulfinylacetic acid]
activity of metabolite ([1]; male mice, intraperitoneal, 64-1024 mg/kg): inactive | death of animals treated [1, 10]: does not cause the death of any of the animals treated | duration of brief sedation [1, 10]: 50 to 60 min | psychotropic activity ([1]; neuropsychopharmacological study): did not reveal any psychotropic activity

NC(=O)C[S+]([O-])C(c1ccccc1)c1ccccc1 (racemic) [CRL 40 476, (±)-benzhydrylsulfinylacetamide]
transient mydriasis, time of appearance after administration ([2]; male rats, 2 mg/kg): 1 h | exophthalmos, duration ([2]; male rats, 8 mg/kg): 0.5 to 1 h | mydriasis, duration ([2]; male rats, 8 mg/kg): 0.5 h | excitation (transient), duration ([2]; male rats, 32 mg/kg): 0.5 h | exophthalmos, duration ([2]; male rats, 32 mg/kg): 0.5 to 1 h | increase in the fear reaction, duration ([2]; male rats, 32 mg/kg): 1 h | mydriasis, duration ([2]; male rats, 32 mg/kg): 1 to 2 h | excitation with increase in the fear reaction, duration ([2]; male rats, 128 mg/kg): 2 h | exophthalmos, duration ([2]; male rats, 128 mg/kg): 1 h | stimulant effects in male rats ([2]; male rats): is a stimulant | mydriatic action in male rats ([2]; male rats): has a mydriatic action at all the doses used | AUCo^+9h of CRL 40 476, comparison between products administered [3]: not statistically different | conversion to inactive metabolite CRL 40 467 [3]: partially converted to (±)-benzhydrylsulfinylacetic acid | motor activity [4]: increase in the motor activity | intensity of stimulant effect / hyperactivity relative to the other products [4]: less than that obtained with either CRL 40 982 or CRL 40 983 | LDO (maximum non-lethal dose) [5]: greater than or equal to 512 mg/kg | stimulant effects in male mice [6]: have stimulant effects

NC(=O)C[S+]([O-])C(c1ccccc1)c1ccccc1 (single isomer, unassigned; (+)) [CRL 40 983, (+)-benzhydrylsulfinylacetamide]
behavior, reactivities and variations in the rectal temperature and pupil diameter [2]: substantially comparable to those of the control group | stimulant effects in male rats ([2]; male rats): do not have stimulant effects | mydriatic action in male rats ([2]; male rats): devoid of this mydriatic action | AUCo^+9h of CRL 40 476, comparison between products administered [3]: not statistically different | conversion to inactive metabolite CRL 40 467 ([3]; listed as dextrorotatory derivative): a very high proportion | motor activity [4]: increase in the motor activity | level and statistical significance of hyperactivity relative to CRL 40 476 [4]: greater than those due to CRL 40 476 | LDO (maximum non-lethal dose) [5]: greater than or equal to 512 mg/kg | stimulant effects in male mice [6]: have stimulant effects

NC(=O)C[S+]([O-])C(c1ccccc1)c1ccccc1 (single isomer, unassigned; (-)) [CRL 40 982, (-)-benzhydrylsulfinylacetamide]
long-term clinical action ([7]; human, long term): arousing substance useful for hypersomnia | improvement in Alzheimer's disease [7, 11]: improvement of the symptoms of dementia, memory disorders, aphasia and ideomotor apraxia | stimulant neuropsychopharmacological profile [7, 11]: different stimulant neuropsychopharmacological profile from that of the amphetamines and tricyclic antidepressants | activity towards symptoms of dementia and loss of memory ([7]; human, short and long term, especially in the elderly): particularly active towards the symptoms of dementia and loss of memory | short-term clinical action ([7]; human, short term): purely hypnogenic, antiarousing substance | half-life ([7]; in vivo, human clinical trials, read-out: elimination half-life (converted)): ~10 h | behavior, reactivities and variations in the rectal temperature and pupil diameter [2]: substantially comparable to those of the control group | stimulant effects in male rats ([2]; male rats): do not have stimulant effects | mydriatic action in male rats ([2]; male rats): devoid of this mydriatic action | AUCo^+9h of CRL 40 476, comparison between products administered [3]: approximately twice | conversion to inactive metabolite CRL 40 467 [3]: only a small proportion of this product is converted to inactive CRL 40 467 | bioavailability ([3]; relative to racemic CRL 40 476 and dextrorotatory CRL 40 983): better bioavailability than the racemic compound CRL 40 476 and the dextrorotatory compound CRL 40 983 | motor activity [4]: increase in the motor activity | intensity of stimulant effect / hyperactivity relative to the other products [4]: stimulant effect equal in intensity to that observed with CRL 40 983 | level and statistical significance of hyperactivity relative to CRL 40 476 [4]: greater than those due to CRL 40 476 | solubility [8]: soluble in alcohols and acetone and insoluble in water and ether | LD30 [5]: about 512 mg/kg | relative toxicity [5]: more toxic than CRL 40 983 (CP1) and CRL 40 476 (CP2) | stimulant effects in male mice [6]: have stimulant effects | immunostimulant effect [9]: immunostimulant effect was also observed
